Data taken from patent publication US5932772A, “Separation processes” (Union Carbide Chemicals & Plastics Technology Corporation, priority 1998, dated 1999).
Where two headings read alike, the source gives them in different places.

Key:
[1] = Aldehyde partition coefficient between nonpolar and polar solvent
Procedure: The efficiency of this extraction process can be measured by a partition coefficient Kp of the one or more products which is defined as follows: [formula]
The vial was shaken vigorously, then allowed to settle. An aliquot from both phases was removed and analyzed for aldehyde via GC. Table H indicates the partition coefficient, which was determined by the ratio of the GC area for the aldehydes (sum of n and iso) in the nonpolar phase to the polar phase.
In this case, the aldehyde contained iso-heptadecanal, n-heptadecanal, and a small amount of C16 alkenes and alkanes. Table H indicates the partition coefficient.
Table H indicates the partition coefficient.
Table H indicates partition coefficient.

[2] = Ligand partition coefficient between polar solvent and hexane; type: physicochemical
[3] = Kpartition in hydroformylation catalyst mixture extracted with hexane (layers analyzed for rhodium); type: physicochemical; settings: acetonitrile catalyst solution after 1-dodecene hydroformylation, 74° C, equal volume hexane
Procedure: To this solution was then charged 5 milliliters of 1-dodecene. The solution was stirred and allowed to equilibrate until no increase in pressure was observed. The reactor was then pressurized to 100 psig with H2 :CO (1:1). Pressure was maintained between 100 and 95 psig until no further reaction had occurred. At this point, the catalyst containing solution was discharged from the reactor. 1.5 milliliters of the catalyst solution was transferred to a vial. To this was added 1.5 milliliters of hexane. The mixture was vigorously shaken for several minutes, then allowed to settle and phase separate. The layers were then separated and analyzed for rhodium content.

[4] = 2,2-dimethylbutane/acetonitrile
[5] = acetonitrile/hexane, ambient temperature
[6] = summary table, acetonitrile and hexane
[7] = 3-methyl-2-oxazolidinone/hexane, ambient temperature
[8] = DMF/hexane, ambient temperature
[9] = DMSO/hexane, ambient temperature
[10] = adiponitrile/hexane, ambient temperature
[11] = caprolactone/hexane, ambient temperature

Row | Structure (SMILES) | Kpartition [2, 5] | Kpartition [2, 6] | also measured
1 | CCCCCCCCCCCCC=O [tridecanal] | – | – | Kpartition (nonpolar to polar phase) ([1]; 1-dodecene/acetonitrile): 4.3
2 | CCCCCCCCCCCC=O [dodecanal] | – | – | Kpartition (nonpolar to polar phase) [1, 4]: 4.6; Kpartition (nonpolar to polar phase) ([1]; heptane/acetonitrile): 4.4
3 | N#CCCP(CCC#N)CCC#N [Ligand F] | > 100 | > 100 | –
4 | CCCCCCCCCCCCCCCCC=O [heptadecanal] | – | – | Kpartition (nonpolar to polar phase) ([1]; hexane/acetonitrile): 5.5
5 | CCCCCCCCCCC=O [undecanal] | – | – | Kpartition (nonpolar to polar phase) ([1]; 1-decene/acetonitrile): 2.3; Kpartition (nonpolar to polar phase) [1, 4]: 3.3; Kpartition (nonpolar to polar phase) ([1]; cyclohexane/acetonitrile): 2.0; Kpartition (nonpolar to polar phase) ([1]; hexane/3-methyl-2-oxazolidinone): 2.6; Kpartition (nonpolar to polar phase) ([1]; nonane/acetonitrile): 1.9
6 | COc1ccc(P(c2ccc(OC)cc2)c2ccc(OC)cc2)cc1 [Ligand G] | 11 | 11 | –
7 | N#CCCP(CCC#N)c1ccccc1 [Ligand L] | > 100 | – | Kpartition [2]: > 100
8 | N#Cc1ccc(Op2oc3ccccc3c3ccccc3o2)cc1 [Ligand P] | 30 | 30 | –
9 | c1ccc(P(c2ccccc2)c2ccccc2)cc1 [TPP, triphenylphosphine, reference compound] | 1.3 | 1.3 | Kpartition [2, 7]: 4.3; Kpartition [2, 8]: 5.9; Kpartition [2, 9]: 2.3; Kpartition [2, 10]: 0.4; Kpartition [2, 11]: 3
10 | C1CCC(P(C2CCCCC2)C2CCCCC2)CC1 [TCHP, tricyclohexylphosphine, reference compound] | 0.2 | < 0.2 | –
11 | O=P(CCP(c1ccccc1)c1ccccc1)(c1ccccc1)c1ccccc1 [Ligand D] | 920 | 920 | Kpartition [2, 8]: 60; Kpartition [2, 9]: 440; Kpartition [2, 11]: 80
12 | OCCCP(c1ccccc1)c1ccccc1 [Ligand J] | 26 | 26 | –
13 | N#Cc1cccc(Op2oc3ccccc3c3ccccc3o2)c1 [Ligand N] | 28 | 28 | –
14 | COc1cc(C(C)(C)C)c2op(Oc3ccccc3C#N)oc3c(C(C)(C)C)cc(OC)cc3c2c1 [Ligand O] | 5.2 | 5.2 | –
15 | CCCCCCCCCCCCCCP(c1ccc(C#N)cc1)c1ccc(C#N)cc1 [Ligand I] | 7 | 7 | –
16 | O=[N+]([O-])c1ccc(Op2oc3ccccc3c3ccccc3o2)cc1 [Ligand R] | 22 | 22 | Kpartition in catalyst mixture [3]: 5.3
17 | CCCCCCCCP(CCCCCCCC)CCCCCCCC [TOP, tri-n-octylphosphine, reference compound] | < 0.01 | < 0.01 | –
18 | O=P(CP(c1ccccc1)c1ccccc1)(c1ccccc1)c1ccccc1 [Ligand E] | 80 | 620 | Kpartition [2, 8]: 50; Kpartition [2, 9]: 620
19 | N#Cc1ccc(P(c2ccc(C#N)cc2)c2ccc(C#N)cc2)cc1 [Ligand A] | 430 | 430 | Kpartition [2, 7]: > 1000; Kpartition [2, 8]: > 1000; Kpartition [2, 9]: > 1000; Kpartition [2, 10]: > 1000; Kpartition [2, 11]: > 1000
20 | COc1cc(-c2cc(OC)cc(C(C)(C)C)c2Op2oc3ccc(OC)cc3c3cc(OC)ccc3o2)c(Op2oc3ccc(OC)cc3c3cc(OC)ccc3o2)c(C(C)(C)C)c1 [Ligand S] | greater than 100 | – | –
21 | N#Cc1cccc(P(c2cccc(C#N)c2)c2cccc(C#N)c2)c1 [Ligand B] | 470 | 470 | Kpartition [2, 8]: 470; Kpartition [2, 9]: 550; Kpartition [2, 11]: 960
22 | COc1cc(C(C)(C)C)c2op(Oc3ccc([N+](=O)[O-])cc3)oc3c(C(C)(C)C)cc(OC)cc3c2c1 [Ligand Q] | 5.3 | 5.3 | –
23 | c1ccc(-c2ccccc2Op2oc3ccccc3c3ccccc3o2)c(Op2oc3ccccc3c3ccccc3o2)c1 [Ligand M] | 25 | 25 | –
24 | CCCCCCCCCCCCCCC=O [pentadecanal] | – | – | Kpartition (nonpolar to polar phase) ([1]; hexane/acetonitrile): 6.8
25 | c1ccc(P(c2ccccc2)C2CCCCC2)cc1 [CHDPP, cyclohexyldiphenylphosphine, reference compound] | 0.5 | 0.4 | Kpartition [2, 7]: 1.2; Kpartition [2, 8]: 2; Kpartition [2, 9]: 0.5; Kpartition [2, 10]: 0.4
